Test results published in patent US12377176B2, “Cancer diagnostic imaging agents” (Technische Universität München, priority 2019, dated 2025).
Values joined by “and” are separate entries in the source; they are usually repeats but may differ in a detail not shown here. Equal entries are not always repeated. Marks after values point to notes of the source that are not given here.

How the values were obtained:
LNCaP cells = experiment: Internalization into LNCaP cells, relative to ([125I]I-BA)KuE; format: cell-based
Experimental: Data is corrected for non-specific binding ([…]) and expressed as mean±SD (n=3).
Subsequent to the removal of the culture medium, the cells were washed once with 500 μL DMEM-F12 (5% BSA) and left to equilibrate for at least 15 min at 37° C. in 200 μL DMEM-F12 (5% BSA). Each well was treated with either 25 μL of either DMEM-F12 (5% BSA) or a 100 μM PMPA solution for blockade. Next, 25 μL of the ^68Ga/^18F-labeled PSMA inhibitor (5.0 nM) was added and the cells incubated at 37° C. for 60 min. The experiment was terminated by placing the 24-well plate on ice for 3 min and consecutive removal of the medium. Each well was rinsed with 250 μL HBSS and the fractions from these first two steps combined, representing the amount of free radioligand. Removal of surface bound activity was accomplished by incubation of the cells with 250 μL of ice-cold PMPA (10 μM in PBS) solution for 5 min and rinsed again with another 250 μL of ice-cold PBS. The internalized activity was determined by incubation of the cells in 250 μL 1 M NaOH and the combination with the fraction of a subsequent wash step with 250 μL 1.0 M NaOH. Each experiment (control and bloackde) was performed in triplicate. Free, surface bound and internalized activity was quantified in a γ-counter. […] Data were corrected for non-specific internalization and normalized to the specific-internalization observed for the radioiodinated reference compound.

[1] = In vivo distribution of rhPSMA-7 isomers after rhPSMA7-rac: radio-HPLC and radio-TLC of blood, organ and urine samples; set-up: species or system mice
Experimental: In order to quantify the relative uptake of each isomer (rhPSMA-7.1-7.4), a tumor-bearing male CB-17-SCID mouse was injected with the racemic mixture of rhPSMA-7 (180-280 MBq, SA=247-349 GBq/μmol, produced at the Klinikum rechts der Isar in a fully automated procedure). The animal was left under anesthesia for 30 min and sacrificed. Urine, blood, liver, kidneys and tumor were collected and processed to the hereafter described procedures. The urine sample was centrifuged for 5 min at 9000 rpm to yield a clear solution and directly subjected to radio-HPLC analysis. Blood was diluted to 1 mL with H2O and centrifuged twice at 13000 g for 5 min. The supernatant was collected and loaded on a Strata X cartridge (33 μm Polymeric Reversed Phase 500 mg, pre-conditioned with 5 mL MeOH, followed by 5 mL H2O). After washing with 5 mL H2O, the cartridge was eluted with a 6:4 mixture (v/v) of MeCN in H2O, supplemented with 1% TFA. The eluate was diluted with water and analysed by radio-HPLC. Tumour, kidneys and liver were homogenised using either a Potter-Elvehjem tissue grinder (Kontes Glass Co, Vineland, USA) or a MM-400 ball mill (Retsch GmbH, Haan, Germany).
Tumour and kidneys were separately homogenised in the tissue homogeniser with 1 mL of extraction buffer (850 μL 1 M HEPES pH7.4, 100 μL20 mM PMPA and 100 μL 1M NaCl) for 30 min. The resulting homogenate was collected and centrifuged at 13000 g for 5 min. Subsequently the supernatant was collected, centrifuged again (13000 g, 5 min) and loaded on a Strata X cartridge (33 μm Polymeric Reversed Phase 500 mg, pre-conditioned with 5 mL MeOH, followed by 5 mL H2O). After washing with 5 mL H2O, the cartridge was eluted with a 6:4 mixture (v/v) of MeCN in H2O, supplemented with 1% TFA. The eluate of each organ was diluted with water and analysed by radio-HPLC.
The organs (tumour, kidney, liver) were separately homogenised in a 2 mL tube together with 3 grinding balls (3 mm diameter) and 1 mL of extraction buffer (850 μL 1 M HEPES pH7.4, 100 μL 20 mM PMPA and 100 μL 1M NaCl) for 10 min at 30 Hz. The homogenate was centrifuged at 13000 g for 5 min and the supernatant was collected. Subsequently, the pellet was suspended in 1 mL of extraction buffer and homogenized again with the ball mill for 10 min at 30 Hz. After centrifugation (13000 g, 5 min), both supernatants were combined and loaded on a Strata X cartridge (33 μm Polymeric Reversed Phase 500 mg, pre-conditioned with 5 mL MeOH, followed by 5 mL H2O). After washing with 5 mL H2O, the cartridge was eluted with a 6:4 mixture (v/v) of MeCN in H2O, supplemented with 1% TFA. The eluate of each organ was diluted with water and analysed by radio-HPLC. […] Finally the ratios of the individual isomers were determined from the HPLC profiles of the extracted samples and compared to the ratios of the isomers from the quality control of the racemic mixture of rhPSMA-7. The decay corrected extraction- and cartridge loading-efficiency, as well as the overall extracted activity of the examined samples are given in table 2. The cartridge elution-efficiency was >99% for all experiments.
Radio-TLC Analysis was carried out a) on urine samples by directly subjecting a small volume onto a TLC strip, b) by analysis of a small volume of the non-immobilized activity during the SPE process (the ‘breakthrough fraction’), and c) by analysis of a small volume of the cartridge eluates.

[2] = Phosphoimager, Blood, 30 min p.i.
[3] = Phosphoimager, Kidney, 30 min p.i.
[4] = Phosphoimager, Tumor, 30 min p.i.
[5] = Phosphoimager, Urine, 30 min p.i., listed as [^18F]rhPSMA7-rac
[6] = TLC Scanner, Kidney, tumor bearing mice 30 min p.i., listed as [^18F]rhPSMA7-rac

For `CC(C)(C)[Si](F)(c1ccc(C(=O)NC[C@@H](NC(=O)CC[C@@H](C(=O)O)N2CCN(CC(=O)O)CCN(CC(=O)O)CCN(CC(=O)O)CC2)C(=O)N[C@H](CCCCNC(=O)CCC(=O)NCCC[C@@H](NC(=O)CC[C@H](NC(=O)N[C@@H](CCC(=O)O)C(=O)O)C(=O)O)C(=O)O)C(=O)O)cc1)C(C)(C)C` [rhPSMA7.3, [^19F][^natGa]D-Dap-S-DOTAGA-rhPSMA7, metal not drawn], the “internalization rate Mean” value (LNCaP cells; LNCaP cells, 1 h, 37 °C, c=0.5 nM, mean) was 161.41 % of [^125I]IB-KuE, the individual internalization rates (LNCaP cells; LNCaP cells, 1 h, 37 °C, c=0.5 nM, single measurements) was 156.6 % of [^125I]IB-KuE and 156.0 % of [^125I]IB-KuE and 171.7 % of [^125I]IB-KuE and the internalization (LNCaP cells; mean ± SD as quoted in the discussion) was 161.41%±8.88.
With “[^19F][^natGa]D/L-Dap-R/S-DOTAGA-rhPSMA7 [rhPSMA7-rac]” the Intact tracer [1, 2] was 96.80^ %, the “^18F-Fluoride” value [1, 2] was 3.20^ % and the Intact tracer [1, 3] was 96.48^ %. The “^18F-Fluoride” value [1, 3] was 3.52^ %, the Intact tracer ([1]; Phosphoimager, Liver, 30 min p.i., listed as [^18F]rhPSMA7-rac) was 93.92^# % and 74.15^# % and the Intact tracer [1, 4] was 96.47^ %. For the same molecule, the “^18F-Fluoride” value [1, 4] was 4.15^ %, the Intact tracer [1, 5] was 98.55^ % and 95.85^ % and the “^18F-Fluoride” value [1, 5] was 1.55^ % and 4.15^ %. The Intact tracer [1, 6] was 94.04% and 94.58%, the “^18F-Fluoride” value [1, 6] was 5.96% and 5.42% and the Intact tracer ([1]; TLC Scanner, Urine, tumor bearing mice 30 min p.i., listed as [^18F]rhPSMA7-rac) was 82.51% and 96.2%.
